From patent US4077999A, “Novel oxime ethers” (Egyt Gyogyszervegyeszeti Gyar, priority 1976, dated 1978)
Read-outs that look alike come from different tables or passages of the source.

Assays:
[1] = system: isolated rat-ileum; assay: Spasmolytic effect on non-striated muscles in isolated rat-ileum (method of Brock et al.); conditions: related to papaverine
Experimental: The spasmolytic effect on non-striated muscles was determined in isolated rat-ileum by the method of Brock et al. (Brock, N., Geks, J. and Lorenz, D.: Arch. Exper. Path. u. Pharmacol. 215, 492 /1952/), applying papaverine as reference substance. In order to characterize the efficiency of an individual compound, the efficiency related to that of papaverine and the LD50 values observed on oral administration are shown in Table II.

[2] = in vivo
[3] = system: nicotine lethality; assay: Inhibition of nicotine lethality (method of Stone), oral administration; assay type: in vivo, mice; conditions: for ED50: Mus musculus; for Therapeutic index: LD50/ED50
[4] = system: reserpine; assay: Reserpine antagonistic effect, oral administration; assay type: in vivo; conditions: for ED50: Mus musculus, mice, oral administration, read-out: Reserpine antagonism ED50
Experimental: (§1) The tetrabenazine-reserpine antagonistic effect was investigated on mice in groups of ten animals each, at oral administration. The inhibition or suspension of the effect of the observed maximum dose was recorded, and the ED50 values were calculated on the basis of the dose vs. effect curves.

[5] = in vivo; conditions: mouse
[6] = system: tetrabenazine; assay: Tetrabenazine antagonistic effect, oral administration; assay type: in vivo; conditions: for ED50: Mus musculus, read-out: Tetrabenazine antagonism, ED50
Experimental: as §1

[7] = system: ischiadic nerve of rats; assay: Local analgesic effect (method of Truant and d'Amato), motor paralysis and its duration; assay type: in vivo; conditions: for Duration, minutes (o.5%): 0.5 % concentration; for Duration, minutes (o.5%) / Duration, minutes (1.0%): duration of local analgesic effect (motor paralysis); for Duration, minutes (1.0%): 1.0 % concentration; for Relative efficiency: local analgesic effect, referred to Lidocaine
Excerpt: The local analgesic effect was investigated on the ischiadic nerve of rats by means of the method of Truant and d'Amato (Truant, A.P. and Wiedling, S.: Acta Chirurg. Scand. 116, 351 /1958/). Lidocaine served as reference substance. […]

[8] = oral administration, Table II, read-out: LD50 p.o.
[9] = inhibition of nicotine lethality, mice, oral administration, read-out: ED50
[10] = mice, oral administration, Table IV
[11] = inhibition of nicotine lethality
[12] = mice, oral administration, Table III

Row | Structure (SMILES) | ED50 [4] | ED50 ([6]; po) | Duration, minutes (o.5%) [7] | Duration, minutes (1.0%) [7] | Relative efficiency [7] | LD50 ([2]; po) | further results
1 | COc1ccccc1C=C1CCCCC1=NOCC(C)CN(C)C (stereo not drawn) [Example 18, 1-(2'-Methyl-3'-dimethylaminopropoxyimino)-2-(o-methoxybenzal)-cyclohexane] |  |  |  |  |  |  | Relative efficiency [1]: 2.43; LD50 [2, 8]: 650 mg/kg
2 | OC(CCN1CCCCC1)(c1ccccc1)C1CCCCC1 (stereo not drawn) [Trihexyphenidyl (Artane), Trihexyphenidyl, reference compound] |  |  |  |  |  |  | ED50 [3, 9]: 40 mg/kg
3 | CN(C)CCC=C1c2ccccc2CCc2ccccc21 [Amitriptylin, reference compound] | 65 mg/kg | 13 mg/kg |  |  |  |  | Therapeutic index ([4]; reserpine antagonism): 3.5; LD50 [5, 10]: 225 mg/kg; Therapeutic index ([6]; tetrabenazine antagonism): 17.3
4 | CN(C)CCON=C1CCCC1=Cc1ccccc1 [Example 27, 2-Benzal-1-(2'-dimethylaminoethoxyimino)-cyclopentane] | 18 mg/kg | 120 mg/kg |  |  |  |  | Therapeutic index ([4]; reserpine antagonism): 33.0; LD50 [5, 10]: 600 mg/kg; Therapeutic index ([6]; tetrabenazine antagonism): 5.0; Therapeutic index [3, 11]: 12.8; ED50 ([3]; po): 47 mg/kg
5 | CN(C)CCCON=C1CCCCC1=Cc1ccc(Cl)cc1 [Example 19, 1-(Dimethylaminopropoxyimino)-2-(p-chlorobenzal)-cyclohexane] | > 180 mg/kg | 34 mg/kg |  |  |  |  | Therapeutic index ([4]; reserpine antagonism): 5.0; LD50 [5, 10]: 900 mg/kg; Therapeutic index ([6]; tetrabenazine antagonism): 26.5
6 | NCCON=C1CCCCC1=Cc1ccccc1 [Example 4, 1-(2'-Aminoethoxyimino)-2-benzalcyclohexane] |  |  |  |  |  |  | LD50 [5, 12]: 400 mg/kg; Therapeutic index [3, 11]: 36.4; ED50 [3, 9]: 11 mg/kg
7 | CCN(CC)CC(=O)Nc1c(C)cccc1C [Lidocaine, reference compound] |  |  | 28 min | 52 min |  |  | 
8 | CCN(CC)CCON=C1CCCCC1=Cc1ccccc1 [Example 2, 2-Benzal-1-(2'-diethylaminoethoxyimino)-cyclohexane] |  |  | 72 min | 111 min | 3.2 | 430 mg/kg | Relative efficiency [1]: 1.73
9 | CN(C)CCCON=C1CCCCCC1=Cc1ccccc1 [Example 10, 2-Benzal-1-(3'-dimethylaminopropoxyimino)-cycloheptane] |  |  |  |  |  |  | Relative efficiency [1]: 2.42; LD50 [2, 8]: 550 mg/kg
10 | CC(C)N(CCON=C1CCCCCC1=Cc1ccccc1)C(C)C [Example 11, 2-Benzal-1-(2'-diisopropylaminoethoxyimino)-cycloheptane] |  |  |  |  |  |  | Relative efficiency [1]: 3.01; LD50 [2, 8]: 325 mg/kg
11 | CCN(CC)CCON=C1CCCC1=Cc1ccccc1 [Example 7, 2-Benzal-1-(2'-diethylaminoethoxyimino)-cyclopentane] |  |  | 94 min | 127 min | 1.8 | 210 mg/kg | 
12 | COc1ccccc1C=C1CCCCC1=NOCCCN(C)C [Example 15, 1-(3'-Dimethylaminopropoxyimino)-2-(o-methoxybenzal)-cyclohexane] |  |  | 92 min | 160 min | 1.7 | 880 mg/kg | 
13 | CN(C)CCCON=C1CCCCCC1=Cc1ccc(Cl)cc1 [Example 12, 1-(3'-Dimethylaminopropoxyimino)-2-(p-chlorobenzal)-cycloheptane] |  |  |  |  |  |  | LD50 [5, 12]: 1450 mg/kg; Therapeutic index [3, 11]: 36.3; ED50 [3, 9]: 40 mg/kg
14 | COc1ccc(C=C2CCCCCC2=NOCCCN(C)C)cc1 [Example 13, 1-(3'-Dimethylaminopropoxyimino)-2-(p-methoxybenzal)-cycloheptane] | 80 mg/kg | 70 mg/kg |  |  |  |  | Therapeutic index ([4]; reserpine antagonism): 12.5; Relative efficiency [1]: 1.96; LD50 [5, 10]: 1000 mg/kg; Therapeutic index ([6]; tetrabenazine antagonism): 14.3; LD50 [2, 8]: 1000 mg/kg
15 | CC(C)N(CCON=C1CCCC1=Cc1ccccc1)C(C)C [Example 8, 2-Benzal-1-(2'-diisopropylaminoethoxyimino)-cyclopentane] |  |  | 66 min | 129 min | 1.1 | 450 mg/kg | 
16 | CN(C)CCCON=C1CCCCC1=Cc1ccccc1Cl [Example 21, 1-(Dimethylaminopropoxyimino)-2-(o-chlorobenzal)-cyclohexane] | > 100 mg/kg | 22 mg/kg |  |  |  |  | Therapeutic index ([4]; reserpine antagonism): 15.0; LD50 [5, 10]: 1500 mg/kg; Therapeutic index ([6]; tetrabenazine antagonism): 68.2
17 | CN(C)CCON=C1CCCC1=Cc1ccccc1 [Example 5, 2-Benzal-1-(2'-dimethylaminoethoxyimino)-cyclopentane] |  |  | 68 min | 96 min | 1.8 | 450 mg/kg | 
18 | COc1ccc(Cc2nccc3cc(OC)c(OC)cc23)cc1OC [Papaverine, reference compound] |  |  |  |  |  |  | LD50 [2, 8]: 367 mg/kg
19 | CN(C)CCCON=C1CCCCC1=Cc1ccccc1 [Example 1, 2-Benzal-1-(3'-dimethylaminopropoxyimino)-cyclohexane] | 27 mg/kg | 80 mg/kg | 99 min | 115 min | 1.7 | 560 mg/kg | Therapeutic index ([4]; mouse, in vivo, po): 20.7; LD50 ([5]; po): 560 mg/kg; Therapeutic index ([6]; mouse, in vivo, po): 7.0
